US8952024B2, “Herbicidal pyrimidone derivatives” (E I du Pont de Nemours and Company, priority 2009, dated 2015)
Read-outs that look alike come from different tables or passages of the source.

Assays:
Assay type in all cases: in vivo
corn (Zea mays) = assay: Test A pre-/postemergence plant response; conditions: Zea mays, 240 h; for Corn plant response rating (crop injury, 0 = no effect, 100 = complete kill) at 125 g/ha: 125 g ai/ha; for Corn plant response rating (crop injury, 0 = no effect, 100 = complete kill) at 500 g/ha: 500 g ai/ha, approx. ten days
Method in brief: (§1)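 Formulated test chemicals (non-phytotoxic solvent, surfactant) were sprayed onto soil right after planting and simultaneously onto young plants at one to two leaves, 2 to 10 cm tall. Plants stayed in the greenhouse about ten days; injury was then visually scored against untreated controls, from 0 (no effect) to 100 (complete control).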

[1] = system: wheat (Triticum aestivum); assay: Test A pre-/postemergence plant response; conditions: Triticum aestivum, 240 h, read-out: Plant response rating, Wheat; for plant injury at 125 g/ha: 125 g ai/ha; for plant injury at 500 g/ha: 500 g ai/ha, approx. ten days
Method in brief: as §1

[2] = system: morningglory (Ipomoea spp.); assay: Test A pre-/postemergence plant response; conditions: Ipomoea, 240 h, read-out: Plant response rating, Morningglory; for pest or weed control at 125 g/ha: 125 g ai/ha
Method in brief: as §1

[3] = system: velvetleaf (Abutilon theophrasti); assay: Test A pre-/postemergence plant response; conditions: Abutilon theophrasti, 240 h, read-out: Plant response rating, Velvetleaf; for pest or weed control at 125 g/ha: 125 g ai/ha; for pest or weed control at 500 g/ha: 500 g ai/ha, approx. ten days
Method in brief: as §1

[4] = system: large crabgrass (Digitaria sanguinalis); assay: Test A pre-/postemergence plant response; conditions: Digitaria sanguinalis, 240 h, read-out: Plant response rating, Crabgrass, Large; for pest or weed control at 125 g/ha: 125 g ai/ha; for pest or weed control at 500 g/ha: 500 g ai/ha, approx. ten days
Method in brief: as §1

[5] = system: giant foxtail (Setaria faberii); assay: Test A pre-/postemergence plant response; conditions: Setaria faberi, 240 h, read-out: Plant response rating, Foxtail, Giant; for pest or weed control at 125 g/ha: 125 g ai/ha; for pest or weed control at 500 g/ha: 500 g ai/ha, approx. ten days
Method in brief: as §1

[6] = system: chickweed (Stellaria media); assay: Test B postemergence plant response
Method in brief: (§2)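 Plants grown in peat/vermiculite medium were sprayed postemergence at 2–18 cm height (1- to 4-leaf stage). After 13–15 days in the greenhouse, response was rated visually against untreated controls on a 0–100 scale (0 no effect, 100 complete control).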

[7] = system: windgrass (Apera spica-venti); assay: Test B postemergence plant response
Method in brief: as §2

[8] = system: winter barley (Hordeum vulgare); assay: Test B postemergence plant response
Method in brief: as §2

[9] = system: canarygrass (Phalaris minor); assay: Test B postemergence plant response
Method in brief: as §2

[10] = post-emergence, Postemergence, 0 to 100 scale where 0 is no effect and 100 is complete control
[11] = post-emergence, Postemergence, 0 to 100 scale, 0 = no effect, 100 = complete control
[12] = pre-emergence, Preemergence, 0 to 100 scale, 0 = no effect, 100 = complete control
[13] = pre-emergence, Preemergence, visual injury, 0 to 100 scale (0 no effect, 100 complete control)
[14] = 62 g ai/ha, postemergence, 0 is no effect, 100 is complete control, 13 to 15 days

Question: Which Corn plant response rating (crop injury, 0 = no effect, 100 = complete kill) at 125 g/ha (corn (Zea mays); [10]) does the source give for `O=C1CCCC(O)=C1C(=O)c1cnc(-c2ccccc2)n(C2CCCCC2)c1=O` [Compound 128, 3-cyclohexyl-5-[(2-hydroxy-6-oxo-1-cyclohexen-1-yl)carbonyl]-2-phenyl-4(3H)-pyrimidinone] here?
Answer: Its Corn plant response rating (crop injury, 0 = no effect, 100 = complete kill) at 125 g/ha is 20%.

Question: And the Corn plant response rating (crop injury, 0 = no effect, 100 = complete kill) at 500 g/ha (corn (Zea mays); [11])?
Answer: Its Corn plant response rating (crop injury, 0 = no effect, 100 = complete kill) at 500 g/ha is 60%.

Question: And the Corn plant response rating (crop injury, 0 = no effect, 100 = complete kill) at 125 g/ha (corn (Zea mays); [12])?
Answer: The Corn plant response rating (crop injury, 0 = no effect, 100 = complete kill) at 125 g/ha was 0%.

Question: What about the Corn plant response rating (crop injury, 0 = no effect, 100 = complete kill) at 500 g/ha (corn (Zea mays); [13]) of the same compound?
Answer: The Corn plant response rating (crop injury, 0 = no effect, 100 = complete kill) at 500 g/ha was 0%.

Question: What about the plant injury at 125 g/ha [1, 10] of the same compound?
Answer: The plant injury at 125 g/ha was 0%.

Question: And the plant injury at 500 g/ha [1, 11]?
Answer: Its plant injury at 500 g/ha is 20%.

Question: And the plant injury at 125 g/ha [1, 12]?
Answer: Its plant injury at 125 g/ha is 0%.

Question: And the plant injury at 500 g/ha [1, 13]?
Answer: The plant injury at 500 g/ha was 30%.

Question: And the pest or weed control at 125 g/ha [2, 10]?
Answer: Its pest or weed control at 125 g/ha is 100%.

Question: And the pest or weed control at 500 g/ha ([2]; post-emergence, Postemergence, 500 g ai/ha, 0 to 100 scale, 0 = no effect, 100 = complete control, approx. ten days)?
Answer: Its pest or weed control at 500 g/ha is 100%.

Question: And the pest or weed control at 125 g/ha [2, 12]?
Answer: Its pest or weed control at 125 g/ha is 80%.

Question: And the pest or weed control at 125 g/ha [3, 10]?
Answer: Its pest or weed control at 125 g/ha is 100%.

Question: What about the pest or weed control at 500 g/ha [3, 11] of the same compound?
Answer: Its pest or weed control at 500 g/ha is 100%.

Question: And the pest or weed control at 125 g/ha [3, 12]?
Answer: Its pest or weed control at 125 g/ha is 80%.

Question: What about the pest or weed control at 500 g/ha [3, 13] of the same compound?
Answer: The pest or weed control at 500 g/ha was 100%.

Question: And the pest or weed control at 125 g/ha [4, 10]?
Answer: Its pest or weed control at 125 g/ha is 90%.

Question: And the pest or weed control at 500 g/ha [4, 11]?
Answer: The pest or weed control at 500 g/ha was 90%.

Question: What about the pest or weed control at 125 g/ha [4, 12] of the same compound?
Answer: Its pest or weed control at 125 g/ha is 80%.

Question: What about the pest or weed control at 500 g/ha [4, 13] of the same compound?
Answer: The pest or weed control at 500 g/ha was 100%.

Question: And the pest or weed control at 125 g/ha [5, 10]?
Answer: The pest or weed control at 125 g/ha was 90%.

Question: What about the pest or weed control at 500 g/ha [5, 11] of the same compound?
Answer: The pest or weed control at 500 g/ha was 90%.

Question: What about the pest or weed control at 125 g/ha [5, 12] of the same compound?
Answer: Its pest or weed control at 125 g/ha is 60%.

Question: What about the pest or weed control at 500 g/ha [5, 13] of the same compound?
Answer: The pest or weed control at 500 g/ha was 90%.

Question: What about the “Chickweed plant response rating (0 to 100 scale)” value [6, 14] of the same compound?
Answer: The value was 90.

Question: And the pest or weed control at 31 g/ha ([6]; Stellaria media, post-emergence, 360 h, Postemergence, 31 g ai/ha, 0 to 100 scale (0 no effect, 100 complete control), read-out: Plant response rating, Chickweed)?
Answer: The pest or weed control at 31 g/ha was 90%.

Question: And the pest or weed control at 125 g/ha ([6]; Stellaria media, post-emergence, 360 h, Postemergence, 125 g ai/ha, scale 0 to 100 (0 no effect, 100 complete control), read-out: Plant response rating, Chickweed)?
Answer: Its pest or weed control at 125 g/ha is 95%.

Question: What about the pest or weed control at 250 g/ha ([6]; Stellaria media, post-emergence, 360 h, Postemergence, 250 g ai/ha, scale 0 to 100 (0 no effect, 100 complete control), 13 to 15 days, read-out: Plant response rating, Chickweed) of the same compound?
Answer: The pest or weed control at 250 g/ha was 100%.

Question: And the “Windgrass plant response rating (0 to 100 scale)” value [7, 14]?
Answer: Its value is 65.

Question: What about the pest or weed control at 31 g/ha ([7]; Apera spica-venti, post-emergence, 360 h, Postemergence, 31 g ai/ha, 0 to 100 scale (0 no effect, 100 complete control), read-out: Plant response rating, Windgrass) of the same compound?
Answer: Its pest or weed control at 31 g/ha is 50%.

Question: And the pest or weed control at 125 g/ha ([7]; Apera spica-venti, post-emergence, 360 h, Postemergence, 125 g ai/ha, scale 0 to 100 (0 no effect, 100 complete control), read-out: Plant response rating, Windgrass)?
Answer: The pest or weed control at 125 g/ha was 70%.

Question: What about the pest or weed control at 250 g/ha ([7]; Apera spica-venti, post-emergence, 360 h, Postemergence, 250 g ai/ha, scale 0 to 100 (0 no effect, 100 complete control), 13 to 15 days, read-out: Plant response rating, Windgrass) of the same compound?
Answer: Its pest or weed control at 250 g/ha is 85%.

Question: And the “Barley plant response rating (0 to 100 scale)” value [8, 14]?
Answer: Its value is 0.

Question: What about the plant injury at 31 g/ha ([8]; Hordeum vulgare, post-emergence, Postemergence, 31 g ai/ha, 0 to 100 scale (0 no effect, 100 complete control), read-out: Plant response rating, Barley) of the same compound?
Answer: The plant injury at 31 g/ha was 0%.

Question: What about the plant injury at 125 g/ha ([8]; Hordeum vulgare, post-emergence, Postemergence, 125 g ai/ha, scale 0 to 100 (0 no effect, 100 complete control), read-out: Plant response rating, Barley) of the same compound?
Answer: The plant injury at 125 g/ha was 0%.

Question: What about the plant injury at 250 g/ha ([8]; Hordeum vulgare, post-emergence, Postemergence, 250 g ai/ha, scale 0 to 100 (0 no effect, 100 complete control), 13 to 15 days, read-out: Plant response rating, Barley) of the same compound?
Answer: Its plant injury at 250 g/ha is 5%.

Question: What about the “Canarygrass plant response rating (0 to 100 scale)” value [9, 14] of the same compound?
Answer: Its value is 10.

Question: What about the pest or weed control at 31 g/ha ([9]; Phalaris minor, post-emergence, 360 h, Postemergence, 31 g ai/ha, 0 to 100 scale (0 no effect, 100 complete control), read-out: Plant response rating, Canarygrass) of the same compound?
Answer: The pest or weed control at 31 g/ha was 10%.

Question: And the pest or weed control at 125 g/ha ([9]; Phalaris minor, post-emergence, 360 h, Postemergence, 125 g ai/ha, scale 0 to 100 (0 no effect, 100 complete control), read-out: Plant response rating, Canarygrass)?
Answer: Its pest or weed control at 125 g/ha is 30%.

Question: What about the pest or weed control at 250 g/ha ([9]; Phalaris minor, post-emergence, 360 h, Postemergence, 250 g ai/ha, scale 0 to 100 (0 no effect, 100 complete control), 13 to 15 days, read-out: Plant response rating, Canarygrass) of the same compound?
Answer: The pest or weed control at 250 g/ha was 30%.
